According to patent US7968607B2, “Skin pore minimizers and skin elasticity improvers” (Koa Corporation, priority 2000, dated 2011):
Counter-ions that a name gives are not always drawn.

Legend:
[1] = tested on: human skin fibroblasts (derived from a human fore skin); assay: Collagen gel tightening promoting ability (fibroblast-embedded collagen gel, dermis model); type: cell-based; conditions: Homo sapiens, Skin fibroblast, 48 hours, relative volume, control = 100%
Procedure: Measurement was conducted on the ability to promote the tightening of a fibroblast-embedded collagen gel as a dermis model. The collagen gel was prepared following the procedure reported in a publication [J. Cell Science, 102, 315 (1992) or J. Invest. Dermatol., 93, 792 (1989)]. Described specifically, a solution of HEPES (250 mM) in a 0.05 N sodium hydroxide solution, a 5-fold concentrate of DMEM (“GIBCO DMEM”, low glucose), FCS (2%, Fetal Calf Serum) and purified water were added under ice cooling to a collagen gel solution (product of Nitta Gelatin Inc., “type 1-A” (3.0 mg/mL, pH=3)), and finally, a suspension of human skin fibroblasts (derived from a human fore skin) was added. After the resulting mixture was thoroughly stirred to eliminate bubbles, 600 μL per well was added to 24-well dishes, followed by immediate warming at 37° C. in an incubator to effect gelation. Three to four hours later, 1 mL of serum-free DMEM medium was added to each of the wells, and the gels were separated at peripheries thereof from the corresponding dishes and were brought into a floating state. Eighteen hours after that, the medium was replaced with serum-free DMEM media which contained 100 to 10 μM of test substances, respectively, and incubation was conducted further for 48 hours.
Volume measurement of the gels was conducted by a weight measuring method similar to that reported in the publication [J. Cell Science, 102, 315 (1992)]. Described specifically, subsequent to immobilization with 10% formalin (4° C., 24 hours), the surface tension of water was reduced by the addition of Triton X100 (product of Wako Pure Chemical Industries) (1%), and the weights were measured.
Measurement results of relative volumes for the respective compounds as calculated supposing that the volume of the control was 100% are presented in Table 3.

[2] = tested on: dorsal skin of HR rats (WBN/ILA-HT); assay: Rat skin elasticity improving (tightening) effect, cutometer; type: in vivo; conditions: for Ur/Uf / Ue (instantaneous elastic displacement) / Uf (final displacement) / Ur (instantaneous recovery displacement): 2% solution in 10% ethanol, two weeks; for Ur/Uf: cutometer; for Ue (instantaneous elastic displacement) / Uf (final displacement) / Ur (instantaneous recovery displacement): cutometer 100 hpa, 5 s suction, 2 s release; for skin elasticity / skin tightening effect: when applied, from Table 4 and Table 5
Procedure: Onto the entire dorsal skins of HR rats (WBN/ILA-HT, 7 weeks old), 2% solutions of Compounds 1 and 4 (solvent: 10% ethanol) were applied in the form of spray, respectively, once or twice a day, 7 to 8 times a week in total, in an amount of 0.7 mL each time. As a control, 10% ethanol solution was used. Two weeks later, the skin elasticity of the skin at a central dorsal part at a site slightly rightward of the median line of each HR rat was measured under Nembutal anesthesia by using a cutometer (“CUTOMETER SEM474”, Courage+Khazaka Electronic GmbH). The measurement was conducted by setting the suction pressure, suction time and release time at 100 hpa, 5 seconds and 2 seconds, and an instantaneous elastic displacement Ue, an instantaneous recovery displacement Ur and a final displacement Uf were recorded. Based on changes in the skin elasticity, skin tightening effect was determined. Ue is an index of elasticity, while Uf is an index of softness and malleability. Both of these values decrease on the face or the like upon aging, and also decrease when the skin is in a swollen state. Increases in these values, therefore, can be taken as an indication of a state that the skin is in a tightened state with its softness, melleability and elasticity having been increased further. Ur is also an index of elasticity, and decreases when the skin is in a saggy state or a swollen state. Similarly, an increase in this value serves as an indication of a state that the skin is in a tightened state with its elasticity and tightness having been increased further. Further, Ur/Uf is also an index of the elasticity of the skin, and like Ur, decreases when the skin becomes saggy or is swollen. Moreover, Ur/Uf is known to decrease upon aging irrespective of the face or body site, and is an important index of sagginess.

[3] = tested on: dorsal skin of HR rats (WBN/ILA-HT); assay: as above; type: in vivo; conditions: 2% solution in 10% ethanol sprayed on dorsal skin, 0.7 mL, 7 to 8 times a week, two weeks
[4] = tested on: human skin fibroblasts (derived from a human fore skin); assay: Collagen gel tightening promoting ability (fibroblast-embedded collagen gel, dermis model); type: cell-based; conditions: 48 hours, relative volume, control = 100%

CCCCCCCCCCOCC(O)COP(=O)([O-])[O-].[Na+].[Na+] (stereo not shown) [Compound 4, 1-decylglycerol-3-phosphate disodium salt]
activity at 15 µM ([1]; 15 μM, read-out: Average gel volume): 96%
activity at 50 µM ([1]; 50 μM, read-out: Average gel volume): 88%
Ur/Uf [2]: 0.401
Ue (instantaneous elastic displacement) [2]: 0.225
Uf (final displacement) [2]: 0.275
Ur (instantaneous recovery displacement) [2]: 0.109
skin elasticity / skin tightening effect [2]: increased the skin elasticity and exhibited skin tightening effect
Skin thickness (mm) [3]: 0.725 mm

CC(C)CCCCCCCCCCCCCCCOCC(O)COS(=O)(=O)O (stereo not shown) [Compound 3, 1-isostearylglycerol-3-sulfate sodium salt]
activity at 10 µM [1]: 74%
activity at 30 µM [1]: 95%
activity at 3 µM [4]: 86%

CCCCCCCCCCCCOCC(O)COS(=O)(=O)[O-].[Na+] (stereo not shown) [Compound 1, 1-dodecylglycerol-3-sulfate sodium salt]
activity at 10 µM [1]: 93%
activity at 30 µM [1]: 85%
Ur/Uf [2]: 0.540
Ue (instantaneous elastic displacement) [2]: 0.113
Uf (final displacement) [2]: 0.159
Ur (instantaneous recovery displacement) [2]: 0.834
skin elasticity / skin tightening effect [2]: increased the skin elasticity and exhibited skin tightening effect
Skin thickness (mm) [3]: 0.820 mm
